Results taken from patent publication US11293024B2, “Antisense antibacterial compounds and methods” (priority 2014, dated 2022).

Test system: existing P. aeruginosa PAO1 biofilm
Assay: Biofilm reduction in MBEC plate (crystal violet)
Format: cell-based, Pseudomonas aeruginosa
Settings: at 10 and 5 μM; 2 μg/mL PMBN; 48 hour biofilm
Experimental: P. aeruginosa PAO1 (5×10^5 cfu/mL) was grown in an MBEC plate for 24 hours. At 24 hours, the pegs were moved to a new 96-well plate containing fresh MHII media and either scrambled, RpsJ, or AcpP PPMO at the indicated concentrations. All wells containing PPMOs (including Scrambled) contained 2 μg/mL of PMBN. The pegs were again moved to new plates with or without PPMOs at 32 and 40 hours. Pegs were processed for crystal violet or visualized with microscopy at 48 hours. […] FIGS. 7B-7D: Spinning Disk confocal microscopy images of 48 hour biofilm treated with (FIG. 7B) 10 μM Scr PPMO #42, (FIG. 7C) 2.5 μM AcpP PPMO #35, (FIG. 7D) 10 μM AcpP PPMO #35. Green channel is PAO1 GFP; Red channel is biofilm stained with 200 μg/mL of Concanavalin A, Alexafluor 647 conjugate.
Pseudomonas aeruginosa Biofilm Reduction in MBEC Plate Protocol
• 1. 10 mL of MH is inoculated with a single colony and incubated at 37° C. and ˜250 rpm for about 5 hours. • 2. The sample is centrifuged for 10 minutes at ˜4000 rpm at 4° C., the supernatant decanted and the pellet resuspended in 10 mL of 150 mM NaCl or PBS. This step is repeated to wash the pellet 3 times. • 3. […] The OD600 of the sample is taken and cfu/mL is calculated. […]
1. […] The final OD570 of the 10× dilution of solution should be approximately 0.500 absorbance. […]
2. OD reading: The OD570 for the 96-well plate from step 1e is determined. […]

PPMO #14: RpsJ PMO GCATTTGACCT, 5′ TEG, 3′ (RXR)4XB CPP
reduction of existing biofilm (crystal violet): statistically significant reduction of biofilm
